# Molecular target: T1, Human M4 receptors (Homo sapiens, UniProt P08173)
# T1 construct: expressed in transfected cells; host or cells: HEK293 cells with Promega GloSensor cAMP technology, stably expressing hM4
# T1 sequence (P08173 1-479): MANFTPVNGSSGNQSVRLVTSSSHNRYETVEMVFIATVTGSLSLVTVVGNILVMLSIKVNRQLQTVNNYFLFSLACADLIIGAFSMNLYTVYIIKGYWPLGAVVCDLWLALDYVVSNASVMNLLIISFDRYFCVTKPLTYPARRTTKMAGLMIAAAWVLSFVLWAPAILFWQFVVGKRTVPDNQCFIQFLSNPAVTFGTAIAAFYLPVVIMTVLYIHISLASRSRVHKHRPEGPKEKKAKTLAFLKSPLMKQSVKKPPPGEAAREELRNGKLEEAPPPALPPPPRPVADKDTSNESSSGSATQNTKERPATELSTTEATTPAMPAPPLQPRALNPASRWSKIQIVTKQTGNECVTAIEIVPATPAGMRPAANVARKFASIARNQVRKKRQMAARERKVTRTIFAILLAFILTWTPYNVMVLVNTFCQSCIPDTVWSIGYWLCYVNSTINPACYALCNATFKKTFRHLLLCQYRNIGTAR
# Assay: M4 PAM cAMP assay (GloSensor)
# Assay type: cell-based
# Details: for Emax: HEK293, read-out: M4 glosensor EC50 Mean Asymptote Maximum (%); for EC50: HEK293 GloSensor cells expressing hM4, with EC20 acetylcholine and isoproterenol, geometric mean of 2-4 determinations unless otherwise indicated
# Experimental: The M4 PAM binding affinity for the compounds of the present invention was determined utilizing the following biological assay(s):
# The M4 cAMP assay was designed to determine the potency and efficacy of muscarinic positive allosteric modulators (PAMs). Human M4 receptors were stably expressed in Human embryonic kidney (HEK293) cells expressed with the Promega GloSensor™ cAMP technology.
# HEK293 GloSensor cells expressing hM4 cells were cultured in growth media containing DMEM with 10% FBS, 1% Penicillin/Streptomycin, 500 μg/mL G418, 200 μg/mL Hygomycin B, and 1% Glutamax. […] Plates were incubated at 37 degrees C. and 5% CO2 for use after 24 hours.
# Compound Preparation for Agonist Screen:
# Each compound was tested at 10 concentrations in duplicate per experiment. Compound plates are spotted with 0.2 μL/well agonist at 400 times the final assay concentration. Positive and negative controls for the compound alone agonist response was 10 μM acetylcholine (Sigma #A2661) and DMSO, respectively. EC20 of acetylcholine was also used to define PAM activities.
# Promega GloSensor™ reagent (Promega #E1291) had previously been aliquotted. […] Stock solution was mixed. Culture media in cell plates was discarded, then replaced with 40 μL/well pre-warmed equilibration media, then incubated in the dark at room temperature for 2 hours. During the incubation, stimulation media containing agonist and EC20 acetylcholine was prepared. […] Compounds are now 5 times the final assay concentration. The plate was mixed using a plate agitator. At the end of the 2 hour GloSensor™ incubation, add 10 μL of the CO2-independent media containing agonist, EC20 acetylcholine and isoproterenol to the cell plate. Cell plate was then incubated for 10 minutes at room temperature, and then read using an EnVision plate reader (Perkin Elmer).
# Data was exported from the EnVision plate reader. The percent effect for each well was determined using the mean values for the positive and negative controls on each plate for each read, specifically 100*(compound−negative control)/(positive control−negative control). Dose response curves were fitted to the compound percent effect data using a 4-parameter logistic fit model. Data was reported as EC50 and Emax, with the Emax as the maximum asymptote of the fitted dose response curve.
Emax [%],EC50 [µM],SMILES
117,0.0139,"COc1nc2c(c(C)c1Cl)CN(C(=O)CC1CN(c3cncnc3)C1)C2 [Example 26, 1-(3-chloro-2-methoxy-4-methyl-5,7-dihydro-6H-pyrrolo[3,4-b]pyridin-6-yl)-2-[1-(pyrimidin-5-yl)azetidin-3-yl]ethanone]"
94.4,0.0168,"COCc1cc(C)c2c(n1)CN(C(=O)CC1CN(c3cccnc3)C1)C2 [Example 27, 1-[2-(methoxymethyl)-4-methyl-5,7-dihydro-6H-pyrrolo[3,4-b]pyridin-6-yl]-2-[1-(pyridin-3-yl)azetidin-3-yl]ethanone]"
116,0.0216,"COc1nc2c(c(C)c1C)CN(C(=O)CC1CN(c3cccnc3)C1)C2 [Example 28, 1-(2-methoxy-3,4-dimethyl-5,7-dihydro-6H-pyrrolo[3,4-b]pyridin-6-yl)-2-[1-(pyridin-3-yl)azetidin-3-yl]ethanone]"
99.8,0.0261,"COc1nc2c(c(C)c1C)CN(C(=O)CC1CN(c3cncnc3)C1)C2 [Example 29, 1-(2-methoxy-3,4-dimethyl-5,7-dihydro-6H-pyrrolo[3,4-b]pyridin-6-yl)-2-[1-(pyrimidin-5-yl)azetidin-3-yl]ethanone]"
103,0.0303,"Cc1cc(C)c2c(n1)CN(C(=O)CC1CN(c3ccnnc3)C1)C2 [Example 30, 1-(2,4-dimethyl-5,7-dihydro-6H-pyrrolo[3,4-b]pyridin-6-yl)-2-[1-(pyridazin-4-yl)azetidin-3-yl]ethanone]"
89.3,0.0178,"COCc1cc(C)c2c(n1)CN(C(=O)CC1CN(c3cncnc3)C1)C2 [Example 31, 1-[2-(methoxymethyl)-4-methyl-5,7-dihydro-6H-pyrrolo[3,4-b]pyridin-6-yl]-2-[1-(pyrimidin-5-yl)azetidin-3-yl]ethanone]"
109,0.011,"Cc1c(Cl)c(OC(F)F)nc2c1CN(C(=O)CC1CN(c3cncnc3)C1)C2 [Example 32, 1-[3-chloro-2-(difluoromethoxy)-4-methyl-5,7-dihydro-6H-pyrrolo[3,4-b]pyridin-6-yl]-2-[1-(pyrimidin-5-yl)azetidin-3-yl]ethanone]"
100,0.014,"Cc1cc(CO)nc2c1CN(C(=O)CC1CN(c3ccnc(C(F)(F)F)c3)C1)C2 [Example 33, 1-[2-(hydroxymethyl)-4-methyl-5,7-dihydro-6H-pyrrolo[3,4-b]pyridin-6-yl]-2-{1-[2-(trifluoromethyl)pyridin-4-yl]azetidin-3-yl}ethanone]"
86,0.018,"Cc1cc(C(F)F)nc2c1CN(C(=O)CC1CN(c3cncnc3)C1)C2 [Example 34, 1-[2-(difluoromethyl)-4-methyl-5,7-dihydro-6H-pyrrolo[3,4-b]pyridin-6-yl]-2-[1-(pyrimidin-5-yl)azetidin-3-yl]ethanone]"
87.9,0.00256,"Cc1nc2c(c(C)c1C)CN(C(=O)CC1CN(c3ccncn3)C1)C2 [Example 35, 2-[1-(pyrimidin-4-yl)azetidin-3-yl]-1-(2,3,4-trimethyl-5,7-dihydro-6H-pyrrolo[3,4-b]pyridin-6-yl)ethanone]"
93,0.0104,"Cc1nc2c(c(C)c1C)CN(C(=O)OC1CN(c3cccnc3)C1)C2 [Example 36, 1-(pyridin-3-yl)azetidin-3-yl 2,3,4-trimethyl-5,7-dihydro-6H-pyrrolo[3,4-b]pyridine-6-carboxylate]"
96.4,< 0.00139,"Cc1nc2c(c(C)c1Cl)CN(C(=O)CC1CN(c3ccncn3)C1)C2 [Example 39, 1-(3-chloro-2,4-dimethyl-5,7-dihydro-6H-pyrrolo[3,4-b]pyridin-6-yl)-2-[1-(pyrimidin-4-yl)azetidin-3-yl]ethanone]"
97.9,0.0236,"COCc1nc2c(c(C)c1C)CN(C(=O)CC1CN(c3cncnc3)C1)C2 [Example 40, 1-[2-(methoxymethyl)-3,4-dimethyl-5,7-dihydro-6H-pyrrolo[3,4-b]pyridin-6-yl]-2-[1-(pyrimidin-5-yl)azetidin-3-yl]ethanone]"
95.6,0.00735,"CCNc1nccc(N2CC(CC(=O)N3Cc4nc(C)cc(C)c4C3)C2)n1 [Example 41, 1-(2,4-dimethyl-5,7-dihydro-6H-pyrrolo[3,4-b]pyridin-6-yl)-2-{1-[2-(ethylamino)pyrimidin-4-yl]azetidin-3-yl}ethanone]"
93.9,0.00505,"Cc1cc(C)c2c(n1)CN(C(=O)CC1CN(c3cc(NC(C)C)ncn3)C1)C2 [Example 42, 1-(2,4-dimethyl-5,7-dihydro-6H-pyrrolo[3,4-b]pyridin-6-yl)-2-{1-[6-(propan-2-ylamino)pyrimidin-4-yl]azetidin-3-yl}ethanone]"
88.6,0.0252,"Cc1cc(C)c2c(n1)CN(C(=O)CC1CN(c3ccc4nc(C)cn4n3)C1)C2 [Example 43, 1-(2,4-dimethyl-5,7-dihydro-6H-pyrrolo[3,4-b]pyridin-6-yl)-2-[1-(2-methylimidazo[1,2-b]pyridazin-6-yl)azetidin-3-yl]ethanone]"
112,0.0168,"Cc1nc2c(c(C)c1Cl)CN(C(=O)CC1CN(c3nncs3)C1)C2 [Example 44, 1-(3-chloro-2,4-dimethyl-5,7-dihydro-6H-pyrrolo[3,4-b]pyridin-6-yl)-2-[1-(1,3,4-thiadiazol-2-yl)azetidin-3-yl]ethanone]"
93.5,0.0156,"Cc1cc(C(F)F)nc2c1CN(C(=O)CC1CN(c3ccnc(C(F)F)c3)C1)C2 [Example 45, 1-[2-(difluoromethyl)-4-methyl-5,7-dihydro-6H-pyrrolo[3,4-b]pyridin-6-yl]-2-{1-[2-(difluoromethyl)pyridin-4-yl]azetidin-3-yl}ethanone]"
106,0.00953,"Cc1nc2c(c(C)c1C)CN(C(=O)CC1CN(c3ccnc(C(F)F)c3)C1)C2 [Example 46, 2-{1-[2-(difluoromethyl)pyridin-4-yl]azetidin-3-yl}-1-(2,3,4-trimethyl-5,7-dihydro-6H-pyrrolo[3,4-b]pyridin-6-yl)ethanone]"
110,0.00219,"COCc1nc2c(c(C)c1Cl)CN(C(=O)CC1CN(c3ccnc(C(F)F)c3)C1)C2 [Example 47, 1-[3-chloro-2-(methoxymethyl)-4-methyl-5,7-dihydro-6H-pyrrolo[3,4-b]pyridin-6-yl]-2-{1-[2-(difluoromethyl)pyridin-4-yl]azetidin-3-yl}ethanone]"
105,0.00299,"COCc1nc2c(c(C)c1Cl)CN(C(=O)CC1CN(c3cccnc3)C1)C2 [Example 48, 1-[3-chloro-2-(methoxymethyl)-4-methyl-5,7-dihydro-6H-pyrrolo[3,4-b]pyridin-6-yl]-2-[1-(pyridin-3-yl)azetidin-3-yl]ethanone]"
101,0.0112,"COCc1nc2c(c(C)c1Cl)CN(C(=O)CC1CN(c3ccc(F)nc3)C1)C2 [Example 49, 1-[3-chloro-2-(methoxymethyl)-4-methyl-5,7-dihydro-6H-pyrrolo[3,4-b]pyridin-6-yl]-2-[1-(6-fluoropyridin-3-yl)azetidin-3-yl]ethanone]"
99.2,0.0143,"COCc1cc(C)c2c(n1)CN(C(=O)CC1CN(c3ccnc(C(F)F)c3)C1)C2 [Example 50, 2-{1-[2-(difluoromethyl)pyridin-4-yl]azetidin-3-yl}-1-[2-(methoxymethyl)-4-methyl-5,7-dihydro-6H-pyrrolo[3,4-b]pyridin-6-yl]ethanone]"
111,0.00468,"COCc1nc2c(c(C)c1Cl)CN(C(=O)CC1CN(c3ccnc(OC(F)F)c3)C1)C2 [Example 52, 1-[3-chloro-2-(methoxymethyl)-4-methyl-5,7-dihydro-6H-pyrrolo[3,4-b]pyridin-6-yl]-2-{1-[2-(difluoromethoxy)pyridin-4-yl]azetidin-3-yl}ethanone]"

# Reference: patent US11905284B2, “5,7-dihydro-pyrrolo-pyridine derivatives” (PFIZER INC., priority 2016, dated 2024)
